Experimental data reported in US7202268B2, “Derivatives of indole-3-carboxamide, preparation method thereof and application of same in therapeutics” (Sanofi-aventis, priority 2002, dated 2007).

First: CCC(C)(C)NC(=O)c1cn(CCCSC)c2c(Cl)c(Cl)ccc12
Second: CSCCCn1cc(C(=O)NCC(C)(C)C)c2ccc(Cl)c(Cl)c21
The melting point of the first is lower: 100 to 103 °C for the first, 170 to 173 °C for the second.

`CC(C)(C)CNC(=O)c1cn(CCCS(C)(=O)=O)c2c(Cl)c(Cl)ccc12` showed a melting point of 208 to 211 °C.
